Where two headings read alike, the source gives them in different places.
How the values were obtained:
Type in all cases: cell-based
hASCT2 [1] = target: T1, hASCT2 (Homo sapiens, UniProt Q15758); assay: Electrophysiology (whole-cell current recording) of transfected HEK293 cells, hASCT2
T1 construct: expressed in transfected cells; host or cells: HEK293 (ATCC CRL-11268), transient transfection
T1 sequence (Q15758 1-541): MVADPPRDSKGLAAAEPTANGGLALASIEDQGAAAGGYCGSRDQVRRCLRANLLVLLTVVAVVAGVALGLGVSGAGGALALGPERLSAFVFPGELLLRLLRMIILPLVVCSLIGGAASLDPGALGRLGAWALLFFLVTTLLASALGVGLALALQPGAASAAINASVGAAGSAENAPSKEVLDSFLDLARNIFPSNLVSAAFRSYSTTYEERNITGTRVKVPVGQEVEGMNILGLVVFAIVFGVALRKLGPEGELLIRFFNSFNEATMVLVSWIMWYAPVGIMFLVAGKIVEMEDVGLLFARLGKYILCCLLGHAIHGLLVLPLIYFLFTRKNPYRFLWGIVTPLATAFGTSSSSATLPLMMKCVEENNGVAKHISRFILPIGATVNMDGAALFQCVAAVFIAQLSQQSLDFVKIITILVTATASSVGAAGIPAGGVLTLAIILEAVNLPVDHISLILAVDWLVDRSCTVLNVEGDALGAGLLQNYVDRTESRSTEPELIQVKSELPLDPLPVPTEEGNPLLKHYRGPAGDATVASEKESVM
Method: (§1) Human embryonic kidney 293 (HEK293, ATCC CRL-11268) cells were cultured in DMEM media supplemented with 10% (v v) fetal bovine serum (FBS), 2 mM glutamine, 1% penicillin streptomycin solution, 1 mM sodium pyruvate and non-essential amino acids. Cells were maintained at 37° C. in a fully humidified atmosphere containing 5% CO2. rASCT2, hASCT2, hASCT1, EAAT1, EAAT2, EAAC1, EAAT5 and YFP complementary DNAs were each used to transiently transfect HEK293 using POLYPLUS Jet-prime transfection reagent. Cells were analyzed using electrophysiological techniques 24-40 hours after transfection.
(§2) Stock solutions of inhibitor was prepared in dimethyl sulfoxide (DMSO) up to 100 mM. Dilutions to working concentrations were made using external buffer. […] For rASCT2, hASCT2 and hASCT1, external buffer contained 140 mM NaCl, 2 mM MgCl2, 2 mM CaCl2), and 10 mM HEPES, pH 7.40 while internal pipette solution comprised of 130 mM NaSCN, 2 mM MgCl2, 10 mM EGTA, 10 mM HEPES and 10 mM alanine, pH 7.40. For specificity experiments with EAAT1, EAAT2, EAAC1 and EAAT5, internal solution contained 10 mM glutamate instead of alanine. Compounds were applied to HEK293 cells expressing DNA of interest suspended from a current recording electrode in whole cell configuration through a rapid solution exchange device. Cells are immersed in external buffer bath used to dissolve the inhibitors. The open pipette resistance was between 3 and 6 MΩ. Series resistance was not compensated in these experiments due to relatively small currents. Currents traces were recorded using an Adams and List EPC7 amplifier and digitized using a Molecular Devices Digidata A/D converter.
(§3) Linear and nonlinear curve fitting of the experimental data were analyzed using MicroCal Origin software. Nonlinear dose-response relationships were fitted with a Michaelis-Menten-like equation to obtain apparent Ki values in the absence of substrate (see TABLE 2 for Ki values). The figures show representative current traces and dose-response curves for hACST2 and rASCT2, used to obtain Ki values in TABLE 2 for compound SN 40. At least four experiments were performed with at least three different cells. Error bars in all graphs, e.g., in FIG. 1B and FIG. 1C and tables (Ki values) represent mean±SD.

rASCT2 = target: T2, rASCT2 (Rattus norvegicus, UniProt D3ZJ25); assay: Electrophysiology (whole-cell current recording) of transfected HEK293 cells, rASCT2
T2 construct: expressed in transfected cells; host or cells: HEK293 (ATCC CRL-11268), transient transfection
T2 sequence (D3ZJ25 1-555): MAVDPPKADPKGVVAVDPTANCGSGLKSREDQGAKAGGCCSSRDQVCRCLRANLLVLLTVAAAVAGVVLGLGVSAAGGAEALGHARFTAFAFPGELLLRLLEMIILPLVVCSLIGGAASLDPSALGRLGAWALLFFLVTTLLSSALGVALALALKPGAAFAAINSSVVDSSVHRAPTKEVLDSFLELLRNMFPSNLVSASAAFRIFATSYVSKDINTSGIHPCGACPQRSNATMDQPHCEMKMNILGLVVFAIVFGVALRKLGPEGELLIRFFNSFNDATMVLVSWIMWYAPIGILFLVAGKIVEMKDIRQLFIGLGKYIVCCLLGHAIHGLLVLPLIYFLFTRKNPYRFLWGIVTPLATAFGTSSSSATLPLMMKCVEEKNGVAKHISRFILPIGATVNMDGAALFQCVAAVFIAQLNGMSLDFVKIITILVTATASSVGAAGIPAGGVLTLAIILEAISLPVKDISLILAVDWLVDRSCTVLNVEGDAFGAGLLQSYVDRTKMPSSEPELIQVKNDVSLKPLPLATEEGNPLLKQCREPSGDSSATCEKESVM
Method: as §1, §2, §3

hASCT1 = target: T3, hASCT1 (Homo sapiens, UniProt P43007); assay: Electrophysiology (whole-cell current recording) of transfected HEK293 cells, hASCT1
T3 construct: expressed in transfected cells; host or cells: HEK293 (ATCC CRL-11268), transient transfection
T3 sequence (P43007 1-532): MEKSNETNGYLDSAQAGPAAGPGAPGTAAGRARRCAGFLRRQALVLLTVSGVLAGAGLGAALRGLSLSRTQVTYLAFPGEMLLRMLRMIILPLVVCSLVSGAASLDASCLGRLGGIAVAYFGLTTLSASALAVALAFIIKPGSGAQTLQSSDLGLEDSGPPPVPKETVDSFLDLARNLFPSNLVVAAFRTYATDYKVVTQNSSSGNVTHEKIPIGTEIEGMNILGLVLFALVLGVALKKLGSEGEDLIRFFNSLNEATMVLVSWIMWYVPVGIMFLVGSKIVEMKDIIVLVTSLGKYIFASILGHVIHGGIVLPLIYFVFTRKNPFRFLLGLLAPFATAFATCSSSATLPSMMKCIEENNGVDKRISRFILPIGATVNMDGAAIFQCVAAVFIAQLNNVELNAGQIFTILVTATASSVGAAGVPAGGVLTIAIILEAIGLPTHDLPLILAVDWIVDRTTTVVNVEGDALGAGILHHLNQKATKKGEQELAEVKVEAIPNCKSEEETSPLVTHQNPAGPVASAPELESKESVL
Method: as §1, §2, §3

hASCT2 [2] = target: T1, hASCT2; assay: Competition experiment with alanine, hASCT2; conditions: 1 mM ala, first entry of the cell
EAAT1 = target: T4, EAAT1 (Homo sapiens, UniProt P43003); assay: Electrophysiology specificity experiment in transfected HEK293 cells, EAAT1; conditions: apparent Ki, HEK293, internal solution 10 mM glutamate, mean ± SD
T4 construct: expressed in transfected cells; host or cells: HEK293 (ATCC CRL-11268), transient transfection
Method: as §1, §2, §3

[3] = apparent Ki in the absence of substrate, HEK293, mean ± SD, read-out: Ki hASCT2
[4] = apparent Ki in the absence of substrate, HEK293, mean ± SD, read-out: Ki rASCT2
[5] = apparent Ki in the absence of substrate, HEK293, mean ± SD, read-out: Ki hASCT1
[6] = Table 3, dihydroxyproline derivatives, read-out: Ki All DNA: rASCT2
[7] = Table 3, dihydroxyproline derivatives, read-out: Ki All DNA: hASCT2
[8] = Table 3, dihydroxyproline derivatives, read-out: Ki All DNA: hASCT1

T4 sequence (P43003 whole entry, species assumed): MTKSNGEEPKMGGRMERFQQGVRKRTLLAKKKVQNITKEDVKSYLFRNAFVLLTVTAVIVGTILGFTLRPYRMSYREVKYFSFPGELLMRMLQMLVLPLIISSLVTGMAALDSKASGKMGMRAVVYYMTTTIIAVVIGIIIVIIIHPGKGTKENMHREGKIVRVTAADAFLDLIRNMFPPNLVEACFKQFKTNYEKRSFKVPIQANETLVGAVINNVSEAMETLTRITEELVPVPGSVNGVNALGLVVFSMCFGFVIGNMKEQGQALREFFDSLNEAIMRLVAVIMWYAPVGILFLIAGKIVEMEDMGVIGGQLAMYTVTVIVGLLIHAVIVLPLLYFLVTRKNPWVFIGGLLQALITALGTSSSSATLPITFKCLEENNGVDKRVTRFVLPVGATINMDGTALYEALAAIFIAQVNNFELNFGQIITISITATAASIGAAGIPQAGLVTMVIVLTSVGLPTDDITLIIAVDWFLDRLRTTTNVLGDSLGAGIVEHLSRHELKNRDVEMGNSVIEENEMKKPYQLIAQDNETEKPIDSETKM

Ki (hASCT2 [1]; [3]) [nM]	Ki (rASCT2; [4]) [nM]	Ki (hASCT1; [5]) [µM]	further results	Structure (SMILES)
1150 ± 900				O=C(O)[C@@H]1C[C@H](NCc2ccc(-c3ccc(C(F)(F)F)cc3)cc2)CN1 [SN 41]
227000 ± 34200	151000 ± 13300	141 ± 17.6		O=C(Nc1cccc(C(=O)N[C@@H]2CN[C@H](C(=O)O)C2)c1)c1ccccc1 [SN 47]
			Ki (rASCT2; [6]): 2160 nM; Ki (hASCT2 [1]; [7]): 3200 nM; Ki (hASCT1; [8]): 2.45 µM	O=C(O[C@]1(CO)CN[C@H](C(=O)O)C1)c1ccc(-c2ccc(F)cc2)cc1 [SN74]
3500 ± 600	3510 ± 600			N[C@@H](CCOC(=O)c1ccc(-c2ccccc2)cc1)C(=O)O [SN 33]
		9.97 ± 0.5	Ki (rASCT2; apparent Ki in the absence of substrate, HEK293, nM, read-out: Ki rASCT2): < 100 nM; Ki (hASCT2 [1]; apparent Ki in the absence of substrate, HEK293, nM, read-out: Ki hASCT2): < 100 nM	O=C(Nc1cccc(C(=O)O[C@@H]2CN[C@H](C(=O)O)C2)c1)c1ccc(C(F)(F)F)cc1 [SN 17]
103000 ± 11200	74700 ± 18300	172 ± 24		O=C(Nc1cccc(CN[C@@H]2CN[C@H](C(=O)O)C2)c1)c1ccccc1 [SN 42]
10000 ± 2800	3630 ± 1100			N[C@H](C(=O)O)[C@@H](O)COC(=O)c1ccc(-c2ccccc2)cc1 [SN 34]
			Ki (rASCT2; [6]): 3870 nM; Competition Expt % block (given as a decimal): hASCT2 (hASCT2 [2]): full; Ki (hASCT2 [2]; read-out: Competition Expt (h/rASCT2 Ki): hASCT2 Ki): 40 µM; Ki (hASCT2 [1]; [7]): 4550 nM; Ki (hASCT1; [8]): 6.61 µM	O=C(OC[C@@]1(O)CN[C@H](C(=O)O)C1)c1ccc(-c2ccccc2)cc1 [SN57]
5650 ± 1300	18800 ± 5000	43 ± 13.4	Ki (EAAT1): 39.5 ± 19 µM	O=C(O[C@@H]1CN[C@H](C(=O)O)C1)c1ccc(C(O)c2ccccc2)cc1 (stereo partly shown) [SN 13]
2710 ± 500	7460 ± 900			N[C@H](C(=O)O)[C@@H](CO)OC(=O)c1ccc(-c2ccccc2)cc1 [SN 37]
			Ki (rASCT2; [6]): 88600 nM; Ki (hASCT2 [1]; [7]): 108000 nM; Ki (hASCT1; [8]): 18.6 µM	O=C(OC[C@@]1(O)CN[C@H](C(=O)O)C1)c1ccc(C(=O)c2ccccc2)cc1 [SN61]
	8170 ± 1100	> 100		O=C(O[C@@H]1CN[C@H](C(=O)O)C1)c1ccc(OCc2ccccc2)cc1 [SN 21]
6380 ± 1200	6020 ± 1800			N[C@H](C(=O)O)[C@H](CO)OC(=O)c1ccc(-c2ccccc2)cc1 [SN 36]
2940 ± 900	3370 ± 400	8.51 ± 3.9	Ki (EAAT1): 1.29 ± 0.2 µM	O=C(Nc1ccc(C(=O)O[C@@H]2CN[C@H](C(=O)O)C2)cc1)c1ccc(C(F)(F)F)cc1 [SN 15]
	4580 ± 1100			O=C(Nc1ccc(C(=O)O[C@@H]2CN[C@H](C(=O)O)C2)cc1)c1ccccc1 [SN 14]
4170 ± 500	3680 ± 700	5.71 ± 0.9		O=C(O[C@@H]1CN[C@H](C(=O)O)C1)c1ccc(Oc2ccccc2)cc1 [SN 20]
